# From patent publication US20250282799A1, “SUBSTITUTED PYRIDO[4,3-d]PYRIMIDINES AS KRAS MODULATORS” (Alterome Therapeutics, Inc., priority 2023, published 2025)
# Test system: KRAS G12V dependent lung adenocarcinoma cell line, NCI-H441
# Assay: Cellular pERK (Thr202/Tyr204) FRET/HTRF assay
# Format: cell-based
# Details: Homo sapiens, NCI-H441, cellular pERK (Thr202/Tyr204) HTRF, NCI-H441 cells
# Summary of the method: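 Phospho-ERK1/2 (Thr202/Tyr204) quantified by two-antibody HTRF in lysed NCI-H441 cells. Cells seeded overnight, treated with test compounds for 1 hr at 37 °C against DMSO control, then lysed and detected at room temperature; IC50 obtained by curve fitting.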
row,IC50,SMILES
1,500 to 10000 nM,"Nc1cc(Cl)c(C(F)(F)F)c(-c2ncc3c(N4CCCC[C@H]5[C@H](F)[C@H]54)nc(OC[C@]45CC(=C(F)F)CN4CCC54CC4)nc3c2F)c1 [Example 411, 3-chloro-5-(2-(((R)-6′-(difluoromethylene)tetrahydrospiro [cyclopropane-1,1′-pyrrolizin]-7a′(5′H)-yl)methoxy)-8-fluoro-4-((1S,7R,8S)-8-fluoro-2-azabicyclo[5.1.0]octan-2-yl)pyrido[4,3-d]pyrimidin-7-yl)-4-(trifluoromethyl)aniline]"
2,< 50 nM,"[2H]C([2H])(Oc1nc(N2CCCC[C@H]3[C@H](F)[C@H]32)c2cnc(-c3cc(N)cc4c(F)cc(F)c(C#C)c34)c(F)c2n1)[C@@]12CCCN1C[C@H](F)C2 [Example 96, 5-ethynyl-6,8-difluoro-4-(8-fluoro-4-((1S,7R,8S)-8-fluoro-2-azabicyclo[5.1.0]octan-2-yl)-2-(((2R,7aS)-2-fluorotetrahydro-1H-pyrrolizin-7a(5H)-yl)methoxy-d2)pyrido[4,3-d]pyrimidin-7-yl)naphthalen-2-amine]"
3,500 to 10000 nM,"[2H]C([2H])(Oc1nc(N2CCOC[C@@H]3[C@@H](F)[C@@H]32)c2cc(F)c(-c3nc(N)cc(C)c3C(F)(F)F)c(F)c2n1)[C@@]12CCCN1C[C@H](F)C2 [Example 176, 6-(6,8-difluoro-4-((1R,7R,8R)-8-fluoro-5-oxa-2-azabicyclo[5.1.0]octan-2-yl)-2-(((2R,7aS)-2-fluorotetrahydro-1H-pyrrolizin-7a(5H)-yl)methoxy-d2)quinazolin-7-yl)-4-methyl-5-(trifluoromethyl)pyridin-2-amine]"
4,50 to 500 nM,"C#Cc1c(F)ccc2cc(N)cc(-c3ncc4c(N5CCOC[C@H]6[C@H](F)[C@H]65)nc(OC[C@]56C[C@@H](F)CN5C[C@@H](CNC(C)=O)C6)nc4c3F)c12 [Example 257, N-(((2R,6R,7aS)-7a-(((7-(3-amino-8-ethynyl-7-fluoronaphthalen-1-yl)-8-fluoro-4-((1S,7S,8S)-8-fluoro-5-oxa-2-azabicyclo[5.1.0]octan-2-yl)pyrido[4,3-d]pyrimidin-2-yl)oxy)methyl)-6-fluorohexahydro-1H-pyrrolizin-2-yl)methyl)acetamide]"
5,< 50 nM,"[2H]C([2H])(Oc1nc(N2CCOC[C@@H]3[C@H]2[C@@]3([2H])F)c2cnc(-c3cc(N)cc4ccc(F)c(C#C)c34)c(F)c2n1)[C@@]12CCCN1C[C@H](F)C2 [Example 185, 5-ethynyl-6-fluoro-4-(8-fluoro-4-((1S,7S,8S)-8-fluoro-5-oxa-2-azabicyclo[5.1.0]octan-2-yl-8-d)-2-(((2R,7aS)-2-fluorotetrahydro-1H-pyrrolizin-7a(5H)-yl)methoxy-d2)pyrido[4,3-d]pyrimidin-7-yl)naphthalen-2-amine]"
6,< 50 nM,"C#Cc1c(F)ccc2cc(N)cc(-c3ncc4c(N5CCOC[C@H]6[C@H](F)[C@H]65)nc(OC[C@]56C[C@@H](F)CN5CCC6=O)nc4c3F)c12 [Example 414, (6R,7aS)-7a-(((7-(3-amino-8-ethynyl-7-fluoronaphthalen-1-yl)-8-fluoro-4-((1S,7S,8S)-8-fluoro-5-oxa-2-azabicyclo[5.1.0]octan-2-yl)pyrido[4,3-d]pyrimidin-2-yl)oxy)methyl)-6-fluorohexahydro-1H-pyrrolizin-1-one]"
7,< 50 nM,"[2H]C([2H])(F)Oc1c(F)ccc2cc(N)cc(-c3ncc4c(N5CCOC[C@H]6[C@H](F)[C@H]65)nc(OC([2H])([2H])[C@@]56CCCN5C[C@H](F)C6)nc4c3F)c12 [Example 116, 6-Fluoro-4-(8-fluoro-4-((1S,7S,8S)-8-fluoro-5-oxa-2-azabicyclo[5.1.0]octan-2-yl)-2-(((2R,7aS)-2-fluorotetrahydro-1H-pyrrolizin-7a(5H)-yl)methoxy-d2)pyrido[4,3-d]pyrimidin-7-yl)-5-(fluoromethoxy-d2)naphthalen-2-amine]"
8,500 to 10000 nM,"C#Cc1c(F)ccc2cc(N)cc(-c3ncc4c(N5CCOC[C@@H]6[C@@H](Cl)[C@@H]65)nc(OC[C@]56CC(=C)CN5CCC65CC5)nc4c3C)c12 [Example 347, 4-(4-((1R,7R,8R)-8-chloro-5-oxa-2-azabicyclo[5.1.0]octan-2-yl)-8-methyl-2-(((R)-6′-methylenetetrahydrospiro[cyclopropane-1,1′-pyrrolizin]-7a′(5′H)-yl)methoxy)pyrido[4,3-d]pyrimidin-7-yl)-5-ethynyl-6-fluoronaphthalen-2-amine]"

# Same assay, conditions: Homo sapiens, NCI-H441, cellular pERK HTRF, NCI-H441 (KRAS G12V) cells
row,IC50,SMILES
1,< 50 nM,"[2H]C([2H])(Oc1nc(N2CCOC[C@H]3[C@H](F)[C@H]32)c2cnc(-c3cc(N)cc4ccc(F)c(C#C)c34)c(CC)c2n1)[C@@]12CCCN1C[C@H](F)C2 [Example 456, 4-(8-Ethyl-4-((1S,7S,8S)-8-fluoro-5-oxa-2-azabicyclo[5.1.0]octan-2-yl)-2-(((2R,7aS)-2-fluorotetrahydro-1H-pyrrolizin-7a(5H)-yl)methoxy-d2)pyrido[4,3-d]pyrimidin-7-yl)-5-ethynyl-6-fluoronaphthalen-2-amine]"
2,< 50 nM,"[2H]C([2H])(Oc1nc(N2CCCC[C@H]3[C@H](F)[C@H]32)c2cnc(-c3cc(N)cc4ccc(F)c(C#C)c34)c(C)c2n1)[C@@]12CCCN1CC(=C)C2 [Example 457, 5-Ethynyl-6-fluoro-4-(4-((1S,7R,8S)-8-fluoro-2-azabicyclo[5.1.0]octan-2-yl)-8-methyl-2-(((S)-2-methylenetetrahydro-1H-pyrrolizin-7a(5H)-yl)methoxy-d2)pyrido[4,3-d]pyrimidin-7-yl)naphthalen-2-amine]"

# Same assay, conditions: cellular pERK (Thr202/Tyr204) HTRF, NCI-H441 cells
row,IC50,SMILES
1,500 to 10000 nM,"[2H]C([2H])(Oc1nc(N2CCOC[C@H]3[C@H](F)[C@H]32)c2cc(Cl)c(-c3cc(N)cc4ccc(F)c(C#C)c34)c(F)c2n1)[C@@]12CCCN1C[C@H](F)C2 (atropisomer, axis not shown; (aS)) [Example 361, 4-((S)-6-chloro-8-fluoro-4-((1S,7S,8S)-8-fluoro-5-oxa-2-azabicyclo[5.1.0]octan-2-yl)-2-(((2R,7aS)-2-fluorotetrahydro-1H-pyrrolizin-7a(5H)-yl)methoxy-d2)quinazolin-7-yl)-5-ethynyl-6-fluoronaphthalen-2-amine]"

# Same assay, conditions: cellular pERK HTRF, NCI-H441 (KRAS G12V) cells
row,IC50,SMILES
1,< 50 nM,"[2H]C([2H])(Oc1nc(N2CCOC[C@H]3[C@H](F)[C@H]32)c2cc(F)c(-c3cc(N)cc4ccc(F)c(C#C)c34)c(C)c2n1)[C@@]12CCCN1C[C@H](F)C2 (atropisomer, axis not shown; (aS)) [Example 435, 5-ethynyl-6-fluoro-4-((S)-6-fluoro-4-((1S,7S,8S)-8-fluoro-5-oxa-2-azabicyclo[5.1.0]octan-2-yl)-2-(((2R,7aS)-2-fluorotetrahydro-1H-pyrrolizin-7a(5H)-yl)methoxy-d2)-8-methylquinazolin-7-yl)naphthalen-2-amine]"
2,500 to 10000 nM,"[2H]C([2H])(Oc1nc(N2CCOC[C@H]3[C@H](F)[C@H]32)c2cc(C#N)c(-c3ccc(F)c4sc(N)c(C#N)c34)c(C)c2n1)[C@@]12CCCN1C[C@H](F)C2 (atropisomer, axis not shown; (aS)) [Example 441, (S)-7-(2-amino-3-cyano-7-fluorobenzo[b]thiophen-4-yl)-4-((1S,7S,8S)-8-fluoro-5-oxa-2-azabicyclo[5.1.0]octan-2-yl)-2-(((2R,7aS)-2-fluorotetrahydro-1H-pyrrolizin-7a(5H)-yl)methoxy-d2)-8-methylquinazoline-6-carbonitrile]"
